Like-named read-outs stand apart in the source and are kept apart here.
Experiments:
HIV-1 RT = HIV-1 RT (Human immunodeficiency virus type 1 group M subtype B, UniProt P03366); assay: HIV Reverse Transcriptase Assay: Inhibitor IC50 determination; assay type: biochemical
Description: HIV Reverse Transcriptase Assay: Inhibitor IC50 determination
HIV-1 RT assay was carried out in 96-well Millipore MultiScreen MADVNOB50 plates using purified recombinant enzyme and a poly(rA)/oligo(dT)16 template-primer in a total volume of 50 μL. The assay constituents were 50 mM Tris/HCl, 50 mM NaCl, 1 mM EDTA, 6 mM MgCl2, 5 μM dTTP, 0.15 μCi [^3H] dTTP, 5 μg/ml poly (rA) pre annealed to 2.5 μg/ml oligo (dT)16 and a range of inhibitor concentrations in a final concentration of 10% DMSO. Reactions were initiated by adding 4 nM HIV-1 RT and after incubation at 37° C. for 30 min, they were stopped by the addition of 50 μl ice cold 20% TCA and allowed to precipitate at 4° C. for 30 min. The precipitates were collected by applying vacuum to the plate and sequentially washing with 3×200 μl of 10% TCA and 2×200 μl 70% ethanol. Finally, the plates were dried and radioactivity counted in a Packard TopCounter after the addition of 25 μl scintillation fluid per well. IC50's were calculated by plotting % inhibition versus log10 inhibitor concentrations.

HIV = assay: Anti-viral Assay (method of Pauwels et al.); assay type: cell-based; details: Human immunodeficiency virus 1; TABLE 3
Description: Anti-viral assays were carried out by the method described by R. E. Pauwels et al. J Virol. Methods 1988 20(4):309-322.

[1] = TABLE I, purified recombinant enzyme, poly(rA)/oligo(dT)16 template-primer, read-out: HIV-RT IC50 RT
[2] = TABLE II, purified recombinant enzyme, poly(rA)/oligo(dT)16 template-primer, read-out: HIV-RT IC50 RT
[3] = TABLE 3, read-out: RT inhibition IC50

Row | Structure (SMILES) | melting point | IC50 (HIV-1 RT; [1]) | IC50 (HIV-1 RT; [2]) | EC50 (HIV) | IC50 (HIV-1 RT; [3])
1 | C[C@@H]1NC(Cc2ccc(Cl)c(Oc3cc(Br)cc(Br)c3)c2F)=NNC1=O [Compound I-2, (S)-3-[4-Chloro-3-(3,5-dibromo-phenoxy)-2-fluoro-benzyl]-5-methyl4,5-dihydro-1H-[1,2,4]triazin-6-one] | 88 to 91.5 °C | 165 nM | – | – | –
2 | O=C1NN=C(Cc2ccc(Cl)c(Oc3cc(Br)cc(Br)c3)c2F)NC12CC2 [Compound I-10, 5-[4-Chloro-3-(3,5-dibromo-phenoxy)-2-fluoro-benzyl]-4,6,7-triaza-spiro[2.5]oct-5-en-8-one] | 90 to 95 °C | 66 nM | – | – | –
3 | C[C@H]1NC(Cc2ccc(Cl)c(Oc3cc(Br)cc(Br)c3)c2F)=NNC1=O [Compound I-3, (R)-3-[4-Chloro-3-(3,5-dibromo-phenoxy)-2-fluoro-benzyl]-5-methyl-4,5-dihydro-1H-[1,2,4]triazin-6-one] | 75.2 to 79.1 °C | 10.7 nM | – | – | –
4 | N#Cc1cc(Cl)cc(Oc2c(Cl)ccc(CC3=NNC(=O)CN3)c2F)c1 [Compound I-28] | 177.6 to 178 °C | 143 nM | – | – | –
5 | N#Cc1cc(Cl)cc(Oc2c(Cl)ccc(CC3=NNC(=O)[C@@H](CO)N3)c2F)c1 [Compound I-30] | 112.5 to 114 °C | 418 nM | – | – | –
6 | Cc1nc(Cc2ccc(Cl)c(Oc3cccc(C#N)c3)c2)n[nH]c1=O [II-2, 3-[2-Chloro-5-(5-methyl-6-oxo-1,6-dihydro-[1,2,4]triazin-3-ylmethyl)-phenoxy]-benzonitrile] | 145.3 to 145.8 °C | – | 206 nM | – | –
7 | CC1OC(Cc2ccc(Cl)c(Oc3cc(Br)cc(Br)c3)c2F)=NNC1=O (stereo not drawn) [Compound I-7, 2-[4-Chloro-3-(3,5-dibromo-phenoxy)-2-fluoro-benzyl]-6-methyl-4H-[1,3,4]oxadiazin-5-one] | 174.2 to 176.1 °C | 24.5 nM | – | – | –
8 | CC1CC(Cc2ccc(Cl)c(Oc3cc(Cl)cc(C#N)c3)c2F)=NNC1=O (stereo in doubt) [Compound I-22, 3-chloro-5-[6-chloro-2-fluoro-3-((S)-5-methyl-6-oxo-1,4,5,6-tetrahydro-pyridazin-3-ylmethyl)-phenoxy]-benzonitrile] | 156.5 to 157.2 °C | 17.7 nM | – | – | –
9 | C[C@H]1NC(Cc2ccc(Cl)c(Oc3cc(C#N)cc(C#N)c3)c2F)=NNC1=O [Compound I-5, 5-[6-Chloro-2-fluoro-3-((R)-5-methyl-6-oxo-1,4,5,6-tetrahydro-[1,2,4]triazin-3-ylmethyl)-phenoxy]-isophthalonitrile] | 81.5 to 100 °C | 31.8 nM | – | 12.2 nM | 32 nM
10 | CC1OC(Cc2ccc(Cl)c(Oc3cc(C#N)cc(C#N)c3)c2F)=NNC1=O (stereo not drawn) [Compound I-9, 5-[6-chloro-2-fluoro-3-(6-methyl-5-oxo-5,6-dihydro-4H-[1,3,4]oxadiazin-2-ylmethyl)-phenoxy]-isophthalonitrile] | 60.9 to 67.7 °C | 40.3 nM | – | – | –
11 | CC1(C)OC(Cc2ccc(Cl)c(Oc3cccc(C#N)c3)c2)=NNC1=O [Compound I-13, 3-[2-Chloro-5-(6,6-dimethyl-5-oxo-5,6-dihydro-4H-[1,3,4]oxadiazin-2-ylmethyl)-phenoxy]-benzonitrile] | 94.1 to 95.3 °C | 9490 nM | – | – | –
12 | Cc1nc(Cc2ccc(Cl)c(Oc3cc(C#N)cc(C#N)c3)c2F)n[nH]c1=O [II-5, 5-[6-chloro-2-fluoro-3-(5-methyl-6-oxo-1,6-dihydro-[1,2,4]triazin-3-ylmethyl)-phenoxy]-isophthalonitrile] | 194.7 to 197.4 °C | – | 432 nM | – | –
13 | Cc1nc(Cc2ccc(Cl)c(Oc3cc(Br)cc(Br)c3)c2F)n[nH]c1=O [II-4, 3-[4-Chloro-3-(3,5-dibromo-phenoxy)-2-fluoro-benzyl]-5-methyl-1H-[1,2,4]triazin-6-one] | 180.9 to 183.3 °C | – | 137 nM | – | –
14 | C[C@H]1NC(Cc2ccc(Br)c(Oc3cc(Cl)cc(C#N)c3)c2F)=NNC1=O [Compound I-26] | 178.2 to 179 °C | 6.6 nM | – | – | –
15 | O=c1[nH]nc(Cc2ccc(Cl)c(Oc3cccc(Br)c3)c2)nc1-c1ccccc1 [II-3, 3-[3-(3-Bromo-phenoxy)4-chloro-benzyl]-5-phenyl-1H-[1,2,4]triazin-6-one] | 59.8 to 63.9 °C | – | 346 nM | – | –
16 | Cc1nc(Cc2ccc(Cl)c(Oc3cccc(Br)c3)c2)n[nH]c1=O [II-1] | – | – | 331 nM | – | –
17 | CC1CC(Cc2ccc(Cl)c(Oc3cc(Cl)cc(Br)c3)c2F)=NNC1=O (stereo in doubt) [Compound I-23, (S)-6-[3-(3-Bromo-5-chloro-phenoxy)-4-chloro-2-fluoro-benzyl]-4-methyl-4,5-dihydro-2H-pyridazin-3-one] | 148.2 to 151 °C | 14.3 nM | – | – | –
18 | CC1OC(Cc2ccc(Cl)c(Oc3cccc(Br)c3)c2)=NNC1=O (stereo not drawn) [Compound I-4, 2-[3-(3-Bromo-phenoxy)-4-chloro-benzyl]-6-methyl-4H-[1,3,4]oxadiazin-5-one] | – | 51.5 nM | – | – | –
19 | C[C@H]1NC(Cc2ccc(Br)c(Oc3cc(C#N)cc(C(F)F)c3)c2F)=NNC1=O [Compound I-25, 3-[6-Bromo-2-fluoro-3-((R)-5-methyl-6-oxo-1,4,5,6-tetrahydro-[1,2,4]triazin-3-ylmethyl)-phenoxy]-5-difluoromethyl-benzonitrile] | 231.5 to 233 °C | 11.7 nM | – | – | –
20 | C[C@H]1NC(Cc2ccc(Cl)c(Oc3cc(Cl)cc(C#N)c3)c2F)=NNC1=O [Compound I-15, 3-Chloro-5-[6-chloro-2-fluoro-3-((R)-5-methyl-6-oxo-1,4,5,6-tetrahydro-[1,2,4]triazin-3-ylmethyl)-phenoxy]-benzonitrile] | 158.6 to 159.9 °C | 11.1 nM | – | 8.3 nM | 11 nM

— patent publication US7625897B2, “Non-nucleoside reverse transcriptase inhibitors” (Roche Palo Alto LLC, priority 2005, dated 2009)
